Where “and” joins values, the source holds several entries; their conditions need not be identical. Identical values can stand only once. Entries after “also recorded” stand apart in the source; their conditions may differ.
B1: His6RGS4 (recombinant regulator of G protein signaling 4) (natural protein, UniProt P49799 1-205, looked up)
chain: MCKGLAGLPASCLRSAKDMKHRLGFLLQKSDSCEHSSSHSKKDKVVTCQRVSQEEVKKWAESLENLINHECGLAAFKAFLKSEYSEENIDFWISCEEYKKIKSPSKLSPKAKKIYNEFISVQATKEVNLDSCTREETSRNMLEPTITCFDEAQKKIFNLMEKDSYRRFLKSRFYLDLTNPSSCGAEKQKGAKSSADCTSLVPQCA
B2: RGS4: recombinant regulator of G protein signaling 4, His6-tagged, expressed in JM109 E. coli (protein)
chain: B1 chain
modifications: left off: His6, end not stated, kept
B3: Goα, endogenous rat brain (natural protein, rat (endogenous in rat brain), UniProt P59215 1-354, looked up)
chain: MGCTLSAEERAALERSKAIEKNLKEDGISAAKDVKLLLLGAGESGKSTIVKQMKIIHEDGFSGEDVKQYKPVVYSNTIQSLAAIVRAMDTLGVEYGDKERKADSKMVCDVVSRMEDTEPFSAELLSAMMRLWGDSGIQECFNRSREYQLNDSAKYYLDSLDRIGAADYQPTEQDILRTRVKTTGIVETHFTFKNLHFRLFDVGGQRSERKKWIHCFEDVTAIIFCVALSGYDQVLHEDETTNRMHESLMLFDSICNNKFFIDTSIILFLNKKDLFGEKIKKSPLTICFPEYPGSNTYEDAAAYIQTQFESKNRSPNKEIYCHMTCATDTNNIQVVFDAVTDIIIANNLRGCGLY

Key:
[1] = biological target: rat mu opioid receptor (MOR)/G protein complex (Rattus norvegicus, UniProt P33535+P59215); assay: Co-immunoprecipitation of Goα and RGS4 with solubilized MOR; format: biochemical; details: for amount of RGS4 co-immunoprecipitated with MOR: 1 μM DAMGO, 0.3 μM RGS4
Goα = Goα (Rattus norvegicus, UniProt P59215); assay: His6RGS4/Ni2+-NTA agarose pull-down of Goα from solubilized rat brain membranes; format: biochemical; details: for effect on association of Goα with His6RGS4: 100 μM GDP or 10 μM GTP alone
mu opioid receptor = mu opioid receptor (Homo sapiens, UniProt P35372); assay: biochemical
MOR = MOR (Homo sapiens, UniProt P35372); format: biochemical; details: presence of 1 μM RGS4
MOR/G protein complex = MOR/G protein complex (Rattus norvegicus, UniProt P33535); assay: Co-immunoprecipitation of Goα with MOR using anti-MOR349-398; format: biochemical; details: 1 µM DAMGO; IP with anti-MOR349-398; Figure S2c
[2] = test system: RGS4 mRNA levels in the locus coeruleus; details: 6 days of chronic morphine administration; ref Gold et al. 2003; cited from earlier work
[3] = biological target: mu opioid receptor (MOR), endogenous rat brain (rat, UniProt P33535 1-398); assay: co-IP
Go/Gi-type G proteins = format: biochemical, human; details: RGS4 added
[4] = biological target: B1; assay: pull-down

rat mu opioid receptor (MOR)/G protein complex, sequence (P33535 whole entry, one chain of several): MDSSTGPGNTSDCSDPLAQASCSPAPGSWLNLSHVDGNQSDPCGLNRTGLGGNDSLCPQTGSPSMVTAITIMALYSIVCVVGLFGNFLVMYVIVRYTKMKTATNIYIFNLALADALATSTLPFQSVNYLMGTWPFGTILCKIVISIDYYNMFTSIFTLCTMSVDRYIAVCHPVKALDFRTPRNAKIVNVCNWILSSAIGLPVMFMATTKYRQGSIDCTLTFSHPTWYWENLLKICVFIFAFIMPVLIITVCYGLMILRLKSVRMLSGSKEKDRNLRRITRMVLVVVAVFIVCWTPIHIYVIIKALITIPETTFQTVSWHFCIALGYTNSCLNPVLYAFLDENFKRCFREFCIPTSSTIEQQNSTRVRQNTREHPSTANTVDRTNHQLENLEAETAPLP
mu opioid receptor, sequence (P35372 whole entry): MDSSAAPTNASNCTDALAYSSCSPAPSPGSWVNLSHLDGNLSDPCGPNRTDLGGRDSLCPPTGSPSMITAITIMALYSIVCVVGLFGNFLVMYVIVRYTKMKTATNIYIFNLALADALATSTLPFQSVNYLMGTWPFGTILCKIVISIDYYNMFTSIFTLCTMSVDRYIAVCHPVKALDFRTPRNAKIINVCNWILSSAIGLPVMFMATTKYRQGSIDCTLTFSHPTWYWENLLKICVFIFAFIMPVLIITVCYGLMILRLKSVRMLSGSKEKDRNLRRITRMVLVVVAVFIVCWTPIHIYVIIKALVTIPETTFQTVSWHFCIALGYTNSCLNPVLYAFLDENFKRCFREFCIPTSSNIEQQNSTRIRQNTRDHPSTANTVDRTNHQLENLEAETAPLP
MOR/G protein complex, sequence (P33535 whole entry, one chain of several): as the sequence (P33535 whole entry, one chain of several) above
mu opioid receptor (MOR), endogenous rat brain, sequence (P33535 whole entry): as the sequence (P33535 whole entry, one chain of several) above
MOR, sequence (P35372 whole entry): as the sequence (P35372 whole entry) above

Question: For C[C@@H](NC(=O)[C@@H](N)Cc1ccc(O)cc1)C(=O)NCC(=O)N(C)[C@@H](Cc1ccccc1)C(=O)NCCO [DAMGO, [D‐Ala^2, N‐Me‐Phe^4, Gly^5‐ol] enkephalin], which “increase in RGS4 co-immunoprecipitating with MOR” value ([1]; DAMGO during immunoprecipitation vs no addition) is on record?
Answer: The value was 50% and 53%.

Question: And the “effect on binding of Goα to RGS4” value (Goα; 1 μM DAMGO alone, without guanine nucleotide)?
Answer: The value was “did not affect”.

Question: What about the “Goα molecules whose affinity for GDP is decreased by MOR activation” value (Goα; DAMGO with 100 μM GDP and 0.3 μM GTPγS) of the same molecule?
Answer: The value was 40–50%.

Question: What about the “inhibition of forskolin-stimulated adenylyl cyclase activity” value (mu opioid receptor) of the same molecule?
Answer: Its value is 21.8% ± 2.27.

Question: And the “maximal inhibition, adenylyl cyclase activity reduced to” value (mu opioid receptor)?
Answer: The value was 3.28 pmoles cAMP formed in 10 min and 3.92 pmoles cAMP formed in 10 min.

Question: And the inhibition at 1 µM (mu opioid receptor; read-out: inhibition of adenylyl cyclase activity)?
Answer: Its inhibition at 1 µM is 60.4 ± 2.97%.

Question: And the “maximal amount of [35S]GTPγS bound (Bmax)” value (MOR)?
Answer: The value was 1319 ± 82 dpm.

Question: And the “increase in Goα co-immunoprecipitating with MOR” value (MOR/G protein complex)?
Answer: The value was roughly 2 fold.

Question: Which “effect on association of Goα with His6RGS4” value (Goα) does the source give for Nc1nc2c(ncn2[C@@H]2O[C@H](COP(=O)(O)OP(=O)(O)O)[C@@H](O)[C@H]2O)c(=O)[nH]1 [GDP] here?
Answer: The value was “failed to affect; also recorded: Neither 100 μM GDP nor 10 μM GTP affected; also recorded: neither GTP nor GDP had an effect”.

Question: And the “effect on GTPγS-enhanced Goα binding to RGS4” value (Goα; 100 μM GDP with 0.3 μM GTPγS)?
Answer: The value was “blocked this effect; also recorded: prevented; also recorded: return to the control level”.

Question: Which “effect on amount of Goα associated with MOR” value ([1]; 10 μM GTP added to DAMGO vs DAMGO alone) does the source give for Nc1nc2c(ncn2[C@@H]2O[C@H](COP(=O)(O)OP(=O)(O)OP(=O)(O)O)[C@@H](O)[C@H]2O)c(=O)[nH]1 [GTP] here?
Answer: Its value is “did not alter”.

Question: What about the “additional increase in RGS4 co-immunoprecipitating with MOR” value ([1]; 10 μM GTP with 1 μM DAMGO vs DAMGO alone) of the same molecule?
Answer: The value was 72% and 71.6%.

Question: And the “effect on association of Goα with His6RGS4” value (Goα)?
Answer: Its value is “failed to affect; also recorded: Neither 100 μM GDP nor 10 μM GTP affected; also recorded: neither GTP nor GDP had an effect”.

Question: Which “RGS4 mRNA levels in the locus coeruleus” value [2] does the source give for CN1CC[C@]23c4c5ccc(O)c4O[C@H]2[C@@H](O)C=C[C@H]3[C@H]1C5 [morphine] here?
Answer: Its value is “doubled”.

Question: Which “stoichiometry N” value [3] does the source give for B1 here?
Answer: The value was roughly 1.

Question: For B2, which “amount of RGS4 co-immunoprecipitated with MOR” value ([1]; absence of GTPγS) is on record?
Answer: The value was 9 ± 1.1 fmol.

Question: And the “amount of RGS4 co-immunoprecipitated with MOR” value ([1]; presence of 1 μM GTPγS)?
Answer: The value was 28 fmol and 28.4 ± 5.4 fmol.

Question: And the “ratio of MOR to RGS4 in the immunoprecipitate” value ([1]; presence of GTPγS)?
Answer: The value was 1–1.

Question: And the “effect on GTPγS-mediated inhibition of adenylyl cyclase activity” value (Go/Gi-type G proteins)?
Answer: The value was “failed to attenuate; also recorded: failed to affect; also recorded: had no effect”.

Question: Which “fold increase of Goα bound to His6RGS4 with 0.3 uM GTPγS against control” value [4] does the source give for B3 here?
Answer: Its value is roughly 3 fold.
